Laboratory results from patent US20240376091A1, “THIADIAZOLEAMIDE DERIVATIVES AND THEIR APPLICATIONS” (ZHEJIANG UNIVERSITY, priority 2021, published 2024).

Biological target: T1, AR (Homo sapiens, UniProt P10275, T878A)
T1 construct: into the androgen-dependent PCa cells (LNCaP); endogenous in cells; host or cells: LNCaP-ARR2PB-eGFP
T1 sequence (P10275 1-920 T878A): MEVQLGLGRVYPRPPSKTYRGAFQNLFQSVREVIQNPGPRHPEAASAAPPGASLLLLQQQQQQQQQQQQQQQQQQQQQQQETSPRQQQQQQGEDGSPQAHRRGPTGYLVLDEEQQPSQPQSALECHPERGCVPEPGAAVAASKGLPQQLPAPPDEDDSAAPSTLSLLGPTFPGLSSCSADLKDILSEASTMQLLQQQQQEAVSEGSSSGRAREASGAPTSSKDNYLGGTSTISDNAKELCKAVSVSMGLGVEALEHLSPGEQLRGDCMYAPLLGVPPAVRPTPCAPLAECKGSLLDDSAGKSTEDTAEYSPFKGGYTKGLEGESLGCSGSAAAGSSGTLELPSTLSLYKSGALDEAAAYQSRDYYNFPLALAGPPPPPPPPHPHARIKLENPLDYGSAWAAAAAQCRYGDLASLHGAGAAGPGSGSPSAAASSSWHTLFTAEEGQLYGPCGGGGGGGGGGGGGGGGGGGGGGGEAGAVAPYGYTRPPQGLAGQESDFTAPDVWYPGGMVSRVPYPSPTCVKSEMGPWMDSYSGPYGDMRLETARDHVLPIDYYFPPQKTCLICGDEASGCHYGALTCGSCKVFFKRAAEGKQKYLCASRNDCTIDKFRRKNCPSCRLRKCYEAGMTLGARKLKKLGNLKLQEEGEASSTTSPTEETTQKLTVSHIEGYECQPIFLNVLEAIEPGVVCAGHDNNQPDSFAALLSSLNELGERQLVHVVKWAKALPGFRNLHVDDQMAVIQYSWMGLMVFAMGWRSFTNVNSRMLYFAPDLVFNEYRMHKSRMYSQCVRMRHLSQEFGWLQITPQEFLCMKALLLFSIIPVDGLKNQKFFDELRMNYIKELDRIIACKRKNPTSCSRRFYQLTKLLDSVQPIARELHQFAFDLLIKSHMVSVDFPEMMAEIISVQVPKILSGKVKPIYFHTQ
Assay: AR transcriptional activity, LNCaP-ARR2PB-eGFP reporter cells
Assay type: cell-based
Settings: read-out: IC50 AR transcriptional activities
Source text: Detection principles: We conducted a stable transfection of promoter ARR2PB known for its strong AR responsiveness, into the androgen-dependent PCa cells (LNCaP). The expression of enhanced green fluorescent protein (eGFP) is depending on the degree of activation of AR. Therefore, LNCaP-ARR2PB-eGFP cell line could quantitatively determine the AR antagonistic activities of the compounds by evaluating the expression of eGFP.

| IC50 [µM] | Structure (SMILES) |
| --- | --- |
| 32.7 | CC(=O)Cc1nsc(NC(=O)c2cc(-c3cccc(OC(F)F)c3)co2)n1 [Compound G-5, 4-(3-(Difluoromethoxy)phenyl)-N-(3-(2-oxopropyl)-1,2,4-thiadiazol-5-yl)furan-2-carboxamide] |
| 42.1 | O=C(Nc1nc(CN2CCCCC2)ns1)c1csc(-c2cccc(OC(F)F)c2)c1 [Compound D-56, 5-(3-(Difluoromethoxy)phenyl)-N-(3-(piperidin-1-ylmethyl)-1,2,4-thiadiazol-5-yl)thiophene-3-carboxamide] |
| 40 | CC(=O)Cc1nsc(NC(=O)c2csc(-c3cccc(OC(F)F)c3)c2)n1 [Compound D-5, 5-(3-(Difluoromethoxy)phenyl)-N-(3-(2-oxopropyl)-1,2,4-thiadiazol-5-yl)thiophene-3-carboxamide] |
| 11.6 | CC(=O)Cc1nsc(NC(=O)c2cc(-c3cccc(OC(F)(F)F)c3)co2)n1 [Compound G-4, N-(3-(2-oxopropyl)-1,2,4-thiadiazol-5-yl)-4-(3-(trifluoromethoxy)phenyl)furan-2-carboxamide] |
| 19.2 | CC(Cc1nsc(NC(=O)c2csc(-c3cccc(OC(F)F)c3)c2)n1)N1CCN(C)CC1 [Compound D-19, 5-(3-(Difluoromethoxy)phenyl)-N-(3-(2-(4-methylpiperazin-1-yl)propyl)-1,2,4-thiadiazol-5-yl)thiophene-3-carboxamide] |
| 0.95 | CC(=O)Cc1nsc(NC(=O)c2cc(-c3ccccc3)oc2C)n1 [Compound A-5, 2-Methyl-N-(3-(2-oxopropyl)-1,2,4-thiadiazol-5-yl)-5-phenylfuran-3-carboxamide] |
| 15.4 | Cc1sc(-c2cccc(OC(F)F)c2)cc1C(=O)Nc1nc(CC(C)N2CCN(C)CC2)ns1 (stereo not drawn) [Compound C-19, 5-(3-(Difluoromethoxy)phenyl)-2-methyl-N-(3-(2-(4-methylpiperazin-1-yl)propyl)-1,2,4-thiadiazol-5-yl)thiophene-3-carboxamide] |
| 2.23 | COc1cccc(-c2cc(C(=O)Nc3nc(CN(C)C)ns3)c(C)o2)c1 [Compound A-118, N-(3-((dimethylamino)methyl)-1,2,4-thiadiazol-5-yl)-5-(3-methoxyphenyl)-2-methylfuran-3-carboxamide] |
| 0.76 | Cc1oc(-c2cccc(C#N)c2)cc1C(=O)Nc1nc(CC(C)N2CCOCC2)ns1 (stereo not drawn) [Compound A-52, 5-(3-Cyanophenyl)-2-methyl-N-(3-(2-morpholinopropyl)-1,2,4-thiadiazol-5-yl)furan-3-carboxamide] |
| 41.5 | CC(=O)Cc1nsc(NC(=O)c2csc(-c3cccc(OC(F)(F)F)c3)c2)n1 [Compound D-4, N-(3-(2-oxopropyl)-1,2,4-thiadiazol-5-yl)-5-(3-(trifluoromethoxy)phenyl)thiophene-3-carboxamide] |
| 0.79 | CC(O)(Cc1nsc(NC(=O)c2cc(-c3cccc(C(F)(F)F)c3)oc2C(F)(F)F)n1)C(F)(F)F (stereo not drawn) [Compound E-17, N-(3-(3,3,3-trifluoro-2-hydroxy-2-methylpropyl)-1,2,4-thiadiazol-5-yl)-2-(trifluoromethyl)-5-(3-(trifluoromethyl)phenyl)furan-3-carboxamide] |
| 12.3 | O=C(Nc1nc(CCl)ns1)c1coc(-c2cccc(C(F)(F)F)c2)c1 [Compound B-40, N-(3-(chloromethyl)-1,2,4-thiadiazol-5-yl)-5-(3-(trifluoromethyl)phenyl)furan-3-carboxamide] |
| 0.07 | [2H]c1c(-c2cccc(OC(F)(F)F)c2)oc(C)c1C(=O)Nc1nc(CC(C)=O)ns1 [Compound A-36, 2-Methyl-N-(3-(2-oxopropyl)-1,2,4-thiadiazol-5-yl)-5-(3-(trifluoromethoxy)phenyl)furan-4-d-3-carboxamide] |
| 27.1 | COc1cccc(-c2coc(C(=O)Nc3nc(CN4CCOCC4)ns3)c2)c1 [Compound G-26, 4-(3-Methoxyphenyl)-N-(3-(morpholinomethyl)-1,2,4-thiadiazol-5-yl)furan-2-carboxamide] |
| 0.04 | Cc1oc(-c2cccc(C(F)(F)F)c2)cc1C(=O)Nc1nc(CC(C)N2CCN(C)CC2)ns1 (stereo not drawn) [Compound A-43, 2-Methyl-N-(3-(2-(4-methylpiperazin-1-yl)propyl)-1,2,4-thiadiazol-5-yl)-5-(3-(trifluoro-methyl)phenyl)furan-3-carboxamide] |
| 11.5 | CC(O)Cc1nsc(NC(=O)c2coc(-c3cccc(C(F)(F)F)c3)c2)n1 (stereo not drawn) [Compound B-20, N-(3-(2-hydroxypropyl)-1,2,4-thiadiazol-5-yl)-5-(3-(trifluoromethyl)phenyl)furan-3-carboxamide] |
| 0.03 | Cc1oc(-c2cccc(C(F)(F)F)c2)cc1C(=O)Nc1nc(CC(C)(C)N)ns1 [Compound A-93, N-(3-(2-amino-2-methylpropyl)-1,2,4-thiadiazol-5-yl)-2-methyl-5-(3-(trifluoromethyl)phenyl)furan-3-carboxamide] |
| 22 | CC(O)(Cc1nsc(NC(=O)c2cc(-c3cccc(C#N)c3)co2)n1)C(F)(F)F (stereo not drawn) [Compound G-13, 4-(3-Cyanophenyl)-N-(3-(3,3,3-trifluoro-2-hydroxy-2-methylpropyl)-1,2,4-thiadiazol-5-yl) furan-2-carboxamide] |
| 28.1 | CC(=O)Cc1nsc(NC(=O)c2cc(-c3cccc(C(F)(F)F)c3)c(C)o2)n1 [Compound F-1, 5-Methyl-N-(3-(2-oxopropyl)-1,2,4-thiadiazol-5-yl)-4-(3-(trifluoromethyl)phenyl)furan-2-carboxamide] |
| 33.6 | COc1cccc(-c2coc(C(=O)Nc3nc(CC(C)=O)ns3)c2)c1 [Compound G-3, 4-(3-Methoxyphenyl)-N-(3-(2-oxopropyl)-1,2,4-thiadiazol-5-yl)furan-2-carboxamide] |
| 0.81 | CC(Cc1nsc(NC(=O)c2cc(-c3cccc(C(F)(F)F)c3)oc2C)n1)=C(F)F [Compound A-80, N-(3-(3,3-difluoro-2-methylallyl)-1,2,4-thiadiazol-5-yl)-2-methyl-5-(3-(trifluoromethyl)phenyl)furan-3-carboxamide] |
| 23.2 | CC(Cc1nsc(NC(=O)c2cc(-c3cccc(C#N)c3)co2)n1)N1CCCCC1 (stereo not drawn) [Compound G-7, 4-(3-Cyanophenyl)-N-(3-(2-(piperidin-1-yl)propyl)-1,2,4-thiadiazol-5-yl)furan-2-carboxamide] |
| 26.2 | CN1CCN(Cc2nsc(NC(=O)c3cc(-c4cccc(OC(F)(F)F)c4)co3)n2)CC1 [Compound G-27] |
| 23.5 | O=C(Nc1nc(CN2CCOCC2)ns1)c1coc(-c2cccc(OC(F)F)c2)c1 [Compound B-57, 5-(3-(Difluoromethoxy)phenyl)-N-(3-(morpholinomethyl)-1,2,4-thiadiazol-5-yl)furan-3-carboxamide] |
| 25.1 | CC(=O)Cc1nsc(NC(=O)c2cc(-c3cccc(OC(F)(F)F)c3)sc2C)n1 [Compound C-4, 2-Methyl-N-(3-(2-oxopropyl)-1,2,4-thiadiazol-5-yl)-5-(3-(trifluoromethoxy)phenyl)thiophene-3-carboxamide] |
| 31.5 | Cc1oc(C(=O)Nc2nc(CC(C)(O)C(F)(F)F)ns2)cc1-c1cccc(C(F)(F)F)c1 (stereo not drawn) [Compound F-13, 5-Methyl-N-(3-(3,3,3-trifluoro-2-hydroxy-2-methylpropyl)-1,2,4-thiadiazol-5-yl)-4-(3-(tri-fluoromethyl)phenyl)furan-2-carboxamide] |

| Structure (SMILES) | IC50 [µM] |
| --- | --- |
| Cc1oc(C(=O)Nc2nc(CC(C)N3CCN(C)CC3)ns2)cc1-c1cccc(OC(F)F)c1 (stereo not drawn) [Compound F-10, 4-(3-(Difluoromethoxy)phenyl)-5-methyl-N-(3-(2-(4-methylpiperazin-1-yl)propyl)-1,2,4-thiadiazol-5-yl)furan-2-carboxamide] | 27.1 |
| CCN(CC)C(C)Cc1nsc(NC(=O)c2cc(-c3cccc(C(F)(F)F)c3)sc2C)n1 (stereo not drawn) [Compound C-7, N-(3-(2-(diethylamino)propyl)-1,2,4-thiadiazol-5-yl)-2-methyl-5-(3-(trifluoromethyl)phenyl)thiophene-3-carboxamide] | 10.6 |
| Cc1oc(-c2cccc(OC(F)(F)F)c2)cc1C(=O)Nc1nc(CC(C)N(C)C)ns1 (stereo not drawn) [Compound A-44, N-(3-(2-(dimethylamino)propyl)-1,2,4-thiadiazol-5-yl)-2-methyl-5-(3-(trifluoromethoxy)phenyl)furan-3-carboxamide] | 0.06 |
| Cc1oc(-c2cccc(C(F)(F)F)c2)cc1C(=O)Nc1nc(CC(C)N(C)C)ns1 (stereo not drawn) [Compound A-38, N-(3-(2-(dimethylamino)propyl)-1,2,4-thiadiazol-5-yl)-2-methyl-5-(3-(trifluoromethyl)phenyl)furan-3-carboxamide] | 0.09 |
